According to ChEMBL document CHEMBL1158657, “Improved antitumor activity by modification of nogalamycin” (1979):

Legend:
Format in all cases: functional
P388 [1] = assay: Antitumor activity against mouse P388 cells xenografted in mouse assessed as increase in life span at 5 mg/kg/day, ip after 9 days; conditions: route intraperitoneal
B16 [2] = assay: Antitumor activity against mouse B16 cells xenografted in mouse assessed as increase in life span at 50 mg/kg/day, ip after 9 days; conditions: route intraperitoneal
P388 [3] = assay: Antitumor activity against mouse P388 cells xenografted in mouse assessed as increase in life span at 25 mg/kg/day, ip after 9 days; conditions: route intraperitoneal
L1210 [4] = assay: Cytotoxicity against mouse L1210 cells; conditions: for IC50: Mus musculus
L1210 [5] = assay: Antitumor activity against mouse L1210 cells xenografted in mouse assessed as increase in life span at 50 mg/kg/day, ip after 9 days; conditions: route intraperitoneal
L1210 [6] = assay: Inhibition of DNA synthesis in mouse L1210 cells; conditions: read-out: ID50 (the source's name)
L1210 [7] = assay: Inhibition of RNA synthesis in mouse L1210 cells; conditions: read-out: ID50 (the source's name)
P388 [8] = assay: Antitumor activity against mouse P388 cells xenografted in mouse assessed as increase in life span at 12.5 mg/kg/day, ip after 9 days; conditions: route intraperitoneal
B16 [9] = assay: Antitumor activity against mouse B16 cells xenografted in mouse assessed as increase in life span at 12 mg/kg/day, ip after 9 days; conditions: route intraperitoneal
P388 [10] = assay: Antitumor activity against mouse P388 cells xenografted in mouse assessed as increase in life span at 6.5 mg/kg/day, ip after 9 days; conditions: route intraperitoneal
P388 [11] = assay: Antitumor activity against mouse P388 cells xenografted in mouse assessed as increase in life span at 6.3 mg/kg/day, ip after 9 days; conditions: route intraperitoneal
P388 [12] = assay: Antitumor activity against mouse P388 cells xenografted in mouse assessed as increase in life span at 100 mg/kg/day, ip after 9 days; conditions: route intraperitoneal
P388 [13] = assay: Antitumor activity against mouse P388 cells xenografted in mouse assessed as increase in life span at 10 mg/kg/day, ip after 9 days; conditions: route intraperitoneal
B16 [14] = assay: Antitumor activity against mouse B16 cells xenografted in mouse assessed as increase in life span at 10 mg/kg/day, ip after 9 days; conditions: route intraperitoneal
P388 [15] = assay: Antitumor activity against mouse P388 cells xenografted in mouse assessed as increase in life span at 70 mg/kg/day, ip after 9 days; conditions: route intraperitoneal
P388 [16] = assay: Antitumor activity against mouse P388 cells xenografted in mouse assessed as increase in life span at 20 mg/kg/day, ip after 9 days; conditions: route intraperitoneal
L1210 [17] = assay: Antitumor activity against mouse L1210 cells xenografted in mouse assessed as increase in life span at 20 mg/kg/day, ip after 9 days; conditions: route intraperitoneal
L1210 [18] = assay: Inhibition of RNA synthesis in mouse L1210 cells at 10 nmole/ml
P388 [19] = assay: Antitumor activity against mouse P388 cells xenografted in mouse assessed as increase in life span at 8 mg/kg/day, ip after 9 days; conditions: route intraperitoneal
[20] = L1210, read-out: ID50 (the source's name)

COC(=O)[C@@H]1c2cc3c(c(O)c2[C@@H](N=[N+]=[N-])C[C@]1(C)O)C(=O)c1c(O)cc2c(c1C3=O)O[C@@H]1O[C@@]2(C)[C@H](O)[C@@H](N(C)C)[C@@H]1O
Activity (P388 [1]): 33%

COC(=O)[C@@H]1c2cc3c(c(O)c2[C@@H](OC)C[C@]1(C)O)C(=O)c1c(O)cc2c(c1C3=O)O[C@@H]1O[C@@]2(C)[C@H](O)[C@@H](N(C)C)[C@@H]1O
Activity (B16 [2]): 84%
Activity (P388 [3]): 60%
IC50 (L1210 [4]; L1210, read-out: ID50): 0.27 µg/mL
Activity (L1210 [5]): 12%
IC50 (L1210 [6]): 3.8 µM
IC50 (L1210 [7]): 0.5 µM

CCO[C@H]1C[C@@](C)(O)[C@H](C(=O)OC)c2cc3c(c(O)c21)C(=O)c1c(O)cc2c(c1C3=O)O[C@@H]1O[C@@]2(C)[C@H](O)[C@@H](N(C)C)[C@@H]1O
IC50 (L1210 [4]; L1210, read-out: ID50): 0.15 µg/mL
Activity (P388 [8]): 70%

CCO[C@H]1C[C@@](C)(O)Cc2cc3c(c(O)c21)C(=O)c1c(O)cc2c(c1C3=O)O[C@@H]1O[C@@]2(C)[C@H](O)[C@@H](N(C)C)[C@@H]1O
Activity (B16 [9]): 25%
IC50 (L1210 [4]; L1210, read-out: ID50): 0.16 µg/mL
Activity (P388 [10]): 63%
IC50 (L1210 [6]): 10.6 µM
IC50 (L1210 [7]): 5.2 µM

CCN(CC)[C@H]1C[C@](C)(O)[C@H](C(=O)OC)c2cc3c(c(O)c21)C(=O)c1c(O)cc2c(c1C3=O)O[C@@H]1O[C@@]2(C)[C@H](O)[C@@H](N(C)C)[C@@H]1O
Activity (P388 [3]): 38%

CCCO[C@H]1C[C@@](C)(O)Cc2cc3c(c(O)c21)C(=O)c1c(O)cc2c(c1C3=O)O[C@@H]1O[C@@]2(C)[C@H](O)[C@@H](N(C)C)[C@@H]1O
IC50 (L1210 [4]; L1210, read-out: ID50): 0.1 µg/mL
Activity (P388 [11]): 34%

CCN[C@H]1C[C@](C)(O)[C@H](C(=O)OC)c2cc3c(c(O)c21)C(=O)c1c(O)cc2c(c1C3=O)O[C@@H]1O[C@@]2(C)[C@H](O)[C@@H](N(C)C)[C@@H]1O
Activity (P388 [3]): 55%

CN(C)[C@H]1[C@H](O)[C@@H]2Oc3c(cc(O)c4c3C(=O)c3cc5c(c(O)c3C4=O)CC[C@](C)(O)C5)[C@@](C)(O2)[C@@H]1O
ID95 (L1210 [4]): 1.76 µM
IC50 (L1210 [4]; [20]): 0.94 µM
Activity (P388 [12]): 21%

COC(=O)[C@@H]1c2cc3c(c(O)c2[C@@H](OC(C)=O)C[C@]1(C)O)C(=O)c1c(O)cc2c(c1C3=O)O[C@@H]1O[C@@]2(C)[C@H](O)[C@@H](N(C)C)[C@@H]1O
Activity (P388 [13]): 87%

COC(=O)[C@@H]1c2cc3c(c(O)c2[C@@H](OC)C[C@@]1(C)O)C(=O)c1c(O)cc2c(c1C3=O)O[C@@H]1O[C@@]2(C)[C@H](O)[C@@H](N(C)C)[C@@H]1O
Activity (B16 [14]): 35%
Activity (P388 [3]): 98%
IC50 (L1210 [4]; L1210, read-out: ID50): 0.13 µg/mL
IC50 (L1210 [6]): 7 µM
IC50 (L1210 [7]): 7.8 µM

COC(=O)c1c(C)ccc2c(O)c3c(cc12)C(=O)c1c2c(cc(O)c1C3=O)[C@@]1(C)O[C@@H](O2)[C@@H](O)[C@H](N(C)C)[C@H]1O [NOGALARENE]
Activity (P388 [15]): 50%
ID95 (L1210 [4]): 0.58 µM
IC50 (L1210 [4]; [20]): 0.24 µM

CO[C@H]1[C@H](O[C@H]2C[C@](C)(O)[C@H](C(=O)O)c3cc4c(c(O)c32)C(=O)c2c(O)cc3c(c2C4=O)O[C@@H]2O[C@@]3(C)[C@H](O)[C@@H](N(C)C)[C@@H]2O)O[C@@H](C)[C@H](OC)[C@@]1(C)OC [NOGALAMYCINIC ACID]
ID95 (L1210 [4]): 1.94 µg/mL
IC50 (L1210 [4]; L1210, read-out: ID50): 1 µg/mL
Activity (P388 [16]): 56%
Activity (L1210 [17]): 18%
inhibition (INH) (L1210 [18]): 86.7%

COC(=O)[C@@H]1c2cc3c(c(O)c2[C@@H](SC)C[C@]1(C)O)C(=O)c1c(O)cc2c(c1C3=O)O[C@@H]1O[C@@]2(C)[C@H](O)[C@@H](N(C)C)[C@@H]1O
Activity (P388 [19]): 37%
